The subject of assay [1] is F culmorum. The assay can be described thus: Antifungal activity of combinations of Rs-AFP and 15-mer peptides. The format is cell-based, Fusarium culmorum. Conditions: 100 x MIC of Rs-AFP2 / MIC of Rs-AFP2/peptide combination; 15-mer peptide added at 20 μg/ml; SMF medium; BSA-coated plates; Rs-AFP2 alone = 100. The method, then:
The 15-mer peptides were tested for their ability to affect the antifungal activity of the Rs-AFP2 protein (SEQ ID NO: 35). Each peptide was added at a subinhibitory concentration (20 μg/ml ) to a twofold dilution series of Rs-AFP2 (SEQ ID NO: 35) ranging from 20 μg/ml down to 0.15 μg/ml. In the control series only water was added.
The target fungus was F culmorum and the growth medium was SMF. In order to exclude the effect of differential binding of the peptides to the microplate wells, the plates were coated with bovine serum albumin. […] The relative specific activity is defined as one hundred times the MIC of Rs-AFP2 divided by the MIC of the Rs-AFP2/peptide combination. Data are based on duplicate tests.

In assay [2] the test system is Fusarium culmorum (IMI 180420). The assay can be described thus: Antifungal growth inhibition microplate assay (photospectrometry). To be noted: 15-mer peptides; 50 mM KCl versus ½ PDB alone. Format: cell-based. In outline: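 Spores (2×10^4/ml) in half-strength potato dextrose broth exposed to test solution, incubated in the dark at room temperature for about 72 h (96 h for V. dahliae). Growth by OD595 minus 30-min reading; IC50 is 50% and MIC 100% growth inhibition.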

Residues, ends and D or L forms follow the SMILES beside them.

Regarding `CC(=O)N[C@@H](CCC(N)=O)C(=O)N[C@@H](CCCCN)C(=O)N[C@@H](CC(C)C)C(=O)N[C@@H](CS)C(=O)N[C@@H](CCC(N)=O)C(=O)N[C@@H](CCCNC(=N)N)C(=O)N1CCC[C@H]1C(=O)N[C@@H](CO)C(=O)NCC(=O)N[C@H](C(=O)N[C@@H](Cc1c[nH]c2ccccc12)C(=O)N[C@@H](CO)C(=O)NCC(=O)N[C@H](C(=O)N[C@@H](CS)C(N)=O)C(C)C)[C@@H](C)O` [Peptide 1 (Rs-AFP2 15-mer)] (Ac-QKLCQRPSGTWSGVC-NH2; N-terminus and C-terminus assumed), in assay [1], the “Relative Specific Antifungal Activity” value is reported as 310.

Turning to `CC(=O)NCC(=O)N[C@H](C(=O)N[C@@H](Cc1c[nH]c2ccccc12)C(=O)N[C@@H](CO)C(=O)NCC(=O)N[C@H](C(=O)N[C@@H](CS)C(=O)NCC(=O)N[C@@H](CC(N)=O)C(=O)N[C@@H](CC(N)=O)C(=O)N[C@@H](CC(N)=O)C(=O)N[C@@H](C)C(=O)N[C@@H](CS)C(=O)N[C@@H](CCCCN)C(=O)N[C@@H](CC(N)=O)C(N)=O)C(C)C)[C@@H](C)O` [Peptide 3 (Rs-AFP2 15-mer)] (Ac-GTWSGVCGNNNACKN-NH2; N-terminus and C-terminus assumed), the “Relative Specific Antifungal Activity” value in assay [1] was determined as 180.

For the molecule `CC[C@H](C)[C@H](NC(=O)[C@H](CS)NC(=O)[C@H](CCC(N)=O)NC(=O)[C@H](CC(N)=O)NC(=O)[C@H](CCCCN)NC(=O)[C@H](CS)NC(=O)[C@H](C)NC(=O)[C@H](CC(N)=O)NC(=O)[C@H](CC(N)=O)NC(=O)[C@H](CC(N)=O)NC(=O)CNC(=O)[C@H](CS)NC(=O)[C@@H](NC(=O)CNC(C)=O)C(C)C)C(=O)N[C@@H](CCCNC(=N)N)C(N)=O` [Peptide 4 (Rs-AFP2 15-mer)] (Ac-GVCGNNNACKNQCIR-NH2; N-terminus and C-terminus assumed), the “Relative Specific Antifungal Activity” value in assay [1] worked out at 180.

On to `CC[C@H](C)[C@H](NC(=O)[C@H](CS)NC(=O)[C@H](CCC(N)=O)NC(=O)[C@H](CC(N)=O)NC(=O)[C@H](CCCCN)NC(=O)[C@H](CS)NC(=O)[C@H](C)NC(=O)[C@H](CC(N)=O)NC(=O)[C@H](CC(N)=O)NC(=O)[C@H](CC(N)=O)NC(C)=O)C(=O)N[C@@H](CCCNC(=N)N)C(=O)N[C@@H](CC(C)C)C(=O)N[C@@H](CCC(=O)O)C(=O)N[C@@H](CCCCN)C(=O)N[C@@H](C)C(N)=O` [Peptide 5 (Rs-AFP2 15-mer)] (Ac-NNNACKNQCIRLEKA-NH2; N-terminus and C-terminus assumed), for which the “Relative Specific Antifungal Activity” value in assay [1] worked out at 180.

`CC[C@H](C)[C@H](NC(=O)[C@H](CS)NC(=O)[C@H](CCC(N)=O)NC(=O)[C@H](CC(N)=O)NC(=O)[C@H](CCCCN)NC(=O)[C@H](CS)NC(C)=O)C(=O)N[C@@H](CCCNC(=N)N)C(=O)N[C@@H](CC(C)C)C(=O)N[C@@H](CCC(=O)O)C(=O)N[C@@H](CCCCN)C(=O)N[C@@H](C)C(=O)N[C@@H](CCCNC(=N)N)C(=O)N[C@@H](Cc1c[nH]cn1)C(=O)NCC(=O)N[C@@H](CO)C(N)=O` [Peptide 6 (Rs-AFP2 15-mer), CKNQCIRLEKARHGS] (Ac-CKNQCIRLEKARHGS-NH2; N-terminus and C-terminus assumed): the “increase of MIC value” in assay [2] was “twofold”. Moreover, in assay [1], the “Relative Specific Antifungal Activity” value is 300.

In the case of `CC[C@H](C)[C@H](NC(=O)[C@H](CS)NC(C)=O)C(=O)N[C@@H](CCCNC(=N)N)C(=O)N[C@@H](CC(C)C)C(=O)N[C@@H](CCC(=O)O)C(=O)N[C@@H](CCCCN)C(=O)N[C@@H](C)C(=O)N[C@@H](CCCNC(=N)N)C(=O)N[C@@H](Cc1c[nH]cn1)C(=O)NCC(=O)N[C@@H](CO)C(=O)N[C@@H](CS)C(=O)N[C@@H](CC(N)=O)C(=O)N[C@@H](Cc1ccc(O)cc1)C(=O)N[C@H](C(N)=O)C(C)C` [Peptide 7 (Rs-AFP2 15-mer), CIRLEKARHGSCNYV] (Ac-CIRLEKARHGSCNYV-NH2; N-terminus and C-terminus assumed), in assay [2], the “increase of MIC value” is “twofold”. Further, the “Relative Specific Antifungal Activity” value in assay [1] is listed as 350.

With `CC(=O)N[C@@H](CCC(=O)O)C(=O)N[C@@H](CCCCN)C(=O)N[C@@H](C)C(=O)N[C@@H](CCCNC(=N)N)C(=O)N[C@@H](Cc1c[nH]cn1)C(=O)NCC(=O)N[C@@H](CO)C(=O)N[C@@H](CS)C(=O)N[C@@H](CC(N)=O)C(=O)N[C@@H](Cc1ccc(O)cc1)C(=O)N[C@H](C(=O)N[C@@H](Cc1ccccc1)C(=O)N1CCC[C@H]1C(=O)N[C@@H](C)C(=O)N[C@@H](Cc1c[nH]cn1)C(N)=O)C(C)C` [Peptide 8 (Rs-AFP2 15-mer)], in assay [2], the “increase of MIC value” is listed as “about 16 fold”. Moreover, the “Relative Specific Antifungal Activity” value in assay [1] was 470.

`CC[C@H](C)[C@H](NC(=O)[C@H](CS)NC(=O)[C@H](CCCCN)NC(=O)[C@H](Cc1c[nH]cn1)NC(=O)[C@H](C)NC(=O)[C@@H]1CCCN1C(=O)[C@H](Cc1ccccc1)NC(=O)[C@@H](NC(=O)[C@H](Cc1ccc(O)cc1)NC(=O)[C@H](CC(N)=O)NC(=O)[C@H](CS)NC(=O)[C@H](CO)NC(=O)CNC(=O)[C@H](Cc1c[nH]cn1)NC(C)=O)C(C)C)C(=O)N[C@@H](CS)C(N)=O` [Peptide 9 (Rs-AFP2 15-mer), HGSCNYVFPAHKCIC] (Ac-HGSCNYVFPAHKCIC-NH2; N-terminus and C-terminus assumed): the “increase of MIC value” in assay [2] is listed as about 8 fold. Moreover, in assay [1], the “Relative Specific Antifungal Activity” value came to 450.

For the molecule `CC[C@H](C)[C@H](NC(=O)[C@H](CS)NC(=O)[C@H](CCCCN)NC(=O)[C@H](Cc1c[nH]cn1)NC(=O)[C@H](C)NC(=O)[C@@H]1CCCN1C(=O)[C@H](Cc1ccccc1)NC(=O)[C@@H](NC(=O)[C@H](Cc1ccc(O)cc1)NC(=O)[C@H](CC(N)=O)NC(C)=O)C(C)C)C(=O)N[C@@H](CS)C(=O)N[C@@H](Cc1ccc(O)cc1)C(=O)N[C@@H](Cc1ccccc1)C(=O)N1CCC[C@H]1C(=O)N[C@@H](CS)C(N)=O` [Peptide 10 (Rs-AFP2 15-mer)] (Ac-NYVFPAHKCICYFPC-NH2; N-terminus and C-terminus assumed), the “Relative Specific Antifungal Activity” value in assay [1] is recorded as 250.

On to “Ac-QRPSGTWSGVCGNNN-NH2 (N-terminus and C-terminus assumed) [Peptide 2 (Rs-AFP2 15-mer)]”, for which the “Relative Specific Antifungal Activity” value in assay [1] was determined as 120.

These data come from patent US20030226169A1, “DNA sequences encoding antifungal proteins” (priority 1995, published 2003).
